From PMC3481155, “AhR activation underlies the CYP1A autoinduction by A-998679 in rats” (Frontiers in Genetics, 2012)

Key:
Format in all cases: in vitro ADME
[1] = target: T1, rat Cyp 2E1 (Rattus norvegicus, UniProt P05182); assay: Recombinant rat Cyp phenotype profiling, 2E1; conditions: 60 min
T1 construct: purchased BD Gentest; host or cells: baculovirus infected insect cells
Method: (§1) Identification of the drug metabolizing enzymes (DMEs) of A-998679 was studied in cDNA expressed recombinant enzymes prepared from baculovirus infected insect cells over-expressing rat Cyp isoforms (BD Gentest, Woburn, MA) as listed in Table 2. Incubations were conducted in duplicate using Supersomes. The incubation mixture contained 100 pmol/ml of enzymes, except for Cyp1a1 (200 pmol/ml), 0.1 or 0.21 μM of [^3H]A-998679 in 100 mM phosphate buffer (pH 7.4). Reactions were initiated with the addition of NADPH at a final concentration of 1 mM and incubated at 37°C for 60 min. At the end of the incubation period, the incubations were terminated by the addition of acetonitrile/ethanol (50/50, v/v) solution. Insect control samples lacking expressed enzyme were used as negative control. The degree of metabolism of A-998679 was assessed by percent of parent remaining using the radio-HPLC method described below.
(§2) Radiolabeled components from the above assays were profiled following separation by HPLC with on line radioflow detector. The system consisted of an Agilent 1100 Series quaternary pump and autosampler connected to a Packard 500TR flow scintillation detector. The data were processed using the Radiomatic™ Flo-one® software v3.65. The scintillant (Perkin Elmer FLO-SCINT™ III) flow was maintained at 3 ml/min. […]

[2] = target: T2, CYP2C9 (Homo sapiens, UniProt P11712); assay: CYP inhibition evaluation in human liver microsomes, CYP2C9 (diclofenac); conditions: probe substrate diclofenac
T2 construct: from tissue; host or cells: human liver microsomes
T2 sequence (P11712 whole entry): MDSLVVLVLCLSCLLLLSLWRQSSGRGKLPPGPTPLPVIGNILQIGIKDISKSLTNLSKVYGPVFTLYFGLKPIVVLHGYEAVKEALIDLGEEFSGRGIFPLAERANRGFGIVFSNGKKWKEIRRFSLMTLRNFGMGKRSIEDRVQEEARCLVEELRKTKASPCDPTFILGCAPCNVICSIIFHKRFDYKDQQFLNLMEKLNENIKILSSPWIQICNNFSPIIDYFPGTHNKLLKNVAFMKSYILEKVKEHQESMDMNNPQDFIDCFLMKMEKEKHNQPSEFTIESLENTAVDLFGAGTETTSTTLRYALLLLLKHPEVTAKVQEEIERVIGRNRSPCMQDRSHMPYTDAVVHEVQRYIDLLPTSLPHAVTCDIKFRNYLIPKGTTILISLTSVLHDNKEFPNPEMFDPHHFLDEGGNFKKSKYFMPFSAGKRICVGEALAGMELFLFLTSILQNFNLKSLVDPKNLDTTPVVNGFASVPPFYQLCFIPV
Method: Incubations were performed in human liver microsomes using probe substrate concentrations similar to their corresponding Km values. Enzyme activity was evaluated in the presence of various concentrations of A-998679. The incubations consisted of the test article at varying concentrations (0–30 μM), probe substrate (concentration ~Km, see Table A2), human liver microsomal protein and 1 mM NADPH in 50 mM phosphate buffer at pH 7.4. Relative quantitation of the metabolites was obtained by LC-MS/MS using an ABSciex (Foster City, CA) API3000 or API4000 Qtrap hybrid linear ion trap mass spectrometer equipped with a TurboIonspray source using either PerkinElmer series 200 pumps or Agilent 1100 series pump with a Leap autosampler. Analytes were separated using a Phenomenex Prodigy ODS(3) 5 μm, 50 × 2.0 mm column at 50°C, eluted and detected under the specific conditions listed in Tables A3, A4, and A5. The analyte to internal standard peak area ratios were determined using Analyst 1.4 software (Applied Biosytems, Carlsbad, CA). The peak area ratios observed in the presence of test article were compared to the vehicle control in order to determine percent activity. To determine the IC50, the data were plotted as Log [dose] μM vs. % inhibition, and analyzed with a sigmoidal dose-response (variable slope) fitting equation. […]

[3] = target: T3, rat Cyp 2D1 (Rattus norvegicus, UniProt P10633); assay: Recombinant rat Cyp phenotype profiling, 2D1; conditions: 60 min
T3 construct: purchased BD Gentest; host or cells: baculovirus infected insect cells
T3 sequence (P10633 whole entry): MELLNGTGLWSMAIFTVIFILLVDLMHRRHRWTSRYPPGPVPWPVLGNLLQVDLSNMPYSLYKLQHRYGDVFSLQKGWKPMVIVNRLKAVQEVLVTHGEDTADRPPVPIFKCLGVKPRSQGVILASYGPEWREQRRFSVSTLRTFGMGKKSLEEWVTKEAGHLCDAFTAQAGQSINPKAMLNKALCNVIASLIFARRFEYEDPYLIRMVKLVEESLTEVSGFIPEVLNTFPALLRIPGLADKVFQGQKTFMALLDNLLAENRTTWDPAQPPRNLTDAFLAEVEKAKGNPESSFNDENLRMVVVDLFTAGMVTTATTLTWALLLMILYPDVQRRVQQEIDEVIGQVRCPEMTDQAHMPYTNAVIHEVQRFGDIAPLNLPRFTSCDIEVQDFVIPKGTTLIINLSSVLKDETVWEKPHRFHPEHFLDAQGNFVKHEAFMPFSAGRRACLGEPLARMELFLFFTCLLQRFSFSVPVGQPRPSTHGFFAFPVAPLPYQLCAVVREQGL
Method: as §1, §2

T1 sequence (P05182 whole entry): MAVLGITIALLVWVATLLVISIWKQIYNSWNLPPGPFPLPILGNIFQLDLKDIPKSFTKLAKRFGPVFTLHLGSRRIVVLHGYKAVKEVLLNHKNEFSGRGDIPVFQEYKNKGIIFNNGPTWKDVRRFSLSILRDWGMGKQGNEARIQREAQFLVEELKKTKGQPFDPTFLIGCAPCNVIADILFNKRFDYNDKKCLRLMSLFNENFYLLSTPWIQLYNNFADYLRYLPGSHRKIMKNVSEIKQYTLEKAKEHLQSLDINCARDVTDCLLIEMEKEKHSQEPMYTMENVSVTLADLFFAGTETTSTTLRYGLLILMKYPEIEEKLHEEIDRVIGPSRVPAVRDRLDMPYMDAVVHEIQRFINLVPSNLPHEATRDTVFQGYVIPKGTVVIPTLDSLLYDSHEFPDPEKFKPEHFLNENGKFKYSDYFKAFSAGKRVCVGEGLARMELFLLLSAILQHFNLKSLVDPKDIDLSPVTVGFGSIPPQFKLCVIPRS

N#Cc1cccc(-c2noc(-c3cccnc3)n2)c1 [A-998679, 3-(5-pyridin-3-yl-1,2,4-oxadiazol-3-yl) benzonitrile]
% parent remaining ([1]; recombinant rat Cyp 2E1, 0.10 μM): 95.5%
% parent remaining ([1]; recombinant rat Cyp 2E1, 0.21 μM): 91.9%
IC50 [2]: > 30 µM
% parent remaining ([3]; recombinant rat Cyp 2D1, 0.10 μM): 91.9%
% parent remaining ([3]; recombinant rat Cyp 2D1, 0.21 μM): 91.1%
